In patent US10752624B2, “Kinase inhibitors” (Origenis GmbH, priority 2012, dated 2020):
pIC50: −log10 of the molar value.

Columns and labels:
SYK kinase = molecular target: T1, SYK kinase (Homo sapiens, UniProt P43405); assay: SYK Assay (OMNIA Kinase Assay, SOX peptide fluorescence); format: biochemical; conditions: 1 mM ATP, 10 μM Omnia Peptide Substrate Tyr 7, 30° C., readings for 30 minutes; read-out: SYK Activities: IC50
T1 construct: purchased Invitrogen, Carlsbad
Protocol: In the assay OMNIA® KINASE ASSAY by Invitrogen Corporation (Carlsbad) the effect of invention of a compound on the phosphorylation is determined by measurement of fluorescence intensity of a chelation-enhanced fluorophore called SOX. Upon phosphorylation of the peptide by the kinase of interest, Mg2+ is chelated to form a bridge between the SOX moiety and the phosphate group that is transferred to the specific tyrosine on the peptide. The fluorescence intensity is directly proportional to the amount of peptide phosphorylation.
To the wells of an 384 well small volume plate (Greiner, Frickenhausen) are added (i) the compound under test in 5% DMSO/distilled water (2 μl), (ii) 16 μl of the master mix containing ATP, DTT, Kinase Reaction Buffer, Omina Peptide Substrate Tyr 7 resulting in a final concentration of 1 mM ATP, 0.2 mM DTT and 10 μM Peptide Substrate.
The Master Mix and the assay plate was incubated to reaction temperature before the measurement (30° C.). The reaction was started with addition of (iii) 2 μl 4 μg/ml SYK kinase (Invitrogen, Carlsbad). During measurement fluorescence intensity readings were collected using a TECAN M1000 at a wavelength of λex 360/λem 485 nm every 30 s for 30 minutes. The reaction velocity was plotted versus the inhibitor concentration to determine the IC50 using XLFit 5.0 (IDBS, Guildford) to fit to a sigmoidal dose response curve.

LRRK2 = LRRK2 (Homo sapiens, UniProt Q5S007); assay: LRRK2-LRRK2 G2019S-Assay (LanthaScreen Eu Kinase Binding Assay); conditions: 5 nM LRRK2, 10 nM tracer 236, 2 nM EU-Anti-GST antibody, 1 h at RT; read-out: LRRK2 Activities: IC50
Chain of LRRK2 (Q5S007 970-2527 limits assumed): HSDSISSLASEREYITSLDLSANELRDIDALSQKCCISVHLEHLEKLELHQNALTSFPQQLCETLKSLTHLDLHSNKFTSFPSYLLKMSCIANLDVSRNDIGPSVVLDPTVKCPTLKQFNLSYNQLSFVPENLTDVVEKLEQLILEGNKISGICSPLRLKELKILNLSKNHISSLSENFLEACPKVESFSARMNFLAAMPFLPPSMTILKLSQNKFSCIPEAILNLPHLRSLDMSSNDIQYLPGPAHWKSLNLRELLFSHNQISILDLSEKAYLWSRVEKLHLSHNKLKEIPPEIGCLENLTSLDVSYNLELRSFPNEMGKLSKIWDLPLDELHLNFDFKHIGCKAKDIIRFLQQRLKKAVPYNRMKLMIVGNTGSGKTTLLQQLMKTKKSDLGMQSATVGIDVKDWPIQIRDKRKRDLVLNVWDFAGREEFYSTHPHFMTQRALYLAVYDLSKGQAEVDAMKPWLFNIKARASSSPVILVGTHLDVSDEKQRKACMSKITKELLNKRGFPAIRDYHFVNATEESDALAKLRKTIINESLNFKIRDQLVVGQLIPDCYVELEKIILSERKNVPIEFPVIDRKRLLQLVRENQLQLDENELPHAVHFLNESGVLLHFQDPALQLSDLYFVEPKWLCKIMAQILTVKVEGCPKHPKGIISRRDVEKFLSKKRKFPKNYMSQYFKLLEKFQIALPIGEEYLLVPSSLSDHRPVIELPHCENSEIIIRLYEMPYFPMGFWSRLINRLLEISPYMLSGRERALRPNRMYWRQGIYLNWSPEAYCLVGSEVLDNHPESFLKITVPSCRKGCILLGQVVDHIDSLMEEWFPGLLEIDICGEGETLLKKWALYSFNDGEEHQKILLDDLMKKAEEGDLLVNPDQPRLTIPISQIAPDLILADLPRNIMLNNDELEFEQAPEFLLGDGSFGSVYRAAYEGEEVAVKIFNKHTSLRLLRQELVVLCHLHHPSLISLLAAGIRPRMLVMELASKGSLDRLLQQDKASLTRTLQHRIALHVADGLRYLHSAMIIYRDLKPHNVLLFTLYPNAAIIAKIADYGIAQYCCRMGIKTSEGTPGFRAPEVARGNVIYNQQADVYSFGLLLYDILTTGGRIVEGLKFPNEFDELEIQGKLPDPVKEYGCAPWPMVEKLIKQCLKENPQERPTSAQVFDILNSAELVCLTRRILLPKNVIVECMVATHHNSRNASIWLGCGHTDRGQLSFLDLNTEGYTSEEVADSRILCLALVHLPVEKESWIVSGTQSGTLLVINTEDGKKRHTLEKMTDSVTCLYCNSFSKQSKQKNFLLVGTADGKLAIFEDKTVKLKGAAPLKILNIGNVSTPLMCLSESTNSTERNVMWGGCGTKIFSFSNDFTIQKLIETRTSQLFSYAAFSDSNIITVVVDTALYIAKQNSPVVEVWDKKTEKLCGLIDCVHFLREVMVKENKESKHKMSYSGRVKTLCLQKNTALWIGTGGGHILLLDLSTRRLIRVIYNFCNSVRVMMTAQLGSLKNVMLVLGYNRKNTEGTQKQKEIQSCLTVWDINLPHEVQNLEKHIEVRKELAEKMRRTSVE
Procedure, shortened: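 In a TR-FRET tracer displacement assay, LRRK2 or its mutants at 5 nM were mixed with 2 nM Eu-anti-GST antibody and 10 nM tracer 236 in kinase buffer A for 1 h at RT. The 665/615 nm emission ratio was plotted against inhibitor concentration, and IC50 came from a variable-slope sigmoidal fit.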

| SMILES | pIC50 (SYK kinase) | pIC50 (LRRK2) |
| --- | --- | --- |
| CN1CCN(C(=O)c2ccc(Nc3nc4ccc(S(C)(=O)=O)cc4c4cn[nH]c34)cc2)CC1 [Example 65, (4-methylpiperazin-1-yl)(4-((8-(methylsulfonyl)-3H-pyrazolo[3,4-c]quinolin-4-yl)amino)phenyl)methanone] | 7.00 to 8.00 | 7.00 to 8.00 |
| CS(=O)(=O)c1ccc2nc(Nc3ccc(C(N)=O)cc3)c3[nH]ncc3c2c1 [Example 66, 4-((8-(methylsulfonyl)-3H-pyrazolo[3,4-c]quinolin-4-yl)amino)benzamide] | 7.00 to 8.00 | 7.00 to 8.00 |
| CN1CCN(C2CCN(c3ccc(Nc4nc5ccc(S(C)(=O)=O)cc5c5cn[nH]c45)cc3)CC2)CC1 [Example 67, N-(4-(4-(4-methylpiperazin-1-yl)piperidin-1-yl)phenyl)-8-(methylsulfonyl)-3H-pyrazolo[3,4-c]quinolin-4-amine] | > 8.00 | 7.00 to 8.00 |
| CC(=O)N1CCN(c2ccc(Nc3nc4ccc(C)cc4c4cn[nH]c34)cc2)CC1 [Example 73, 1-(4-(4-((8-methyl-3H-pyrazolo[3,4-c]quinolin-4-yl)amino)phenyl)piperazin-1-yl)ethan-1-one] | 6.00 to 7.00 | 7.00 to 8.00 |
| Cc1ccc2nc(Nc3ccc(N4CCOCC4)cc3)c3[nH]ncc3c2c1 [Example 74, 8-methyl-N-(4-morpholinophenyl)-3H-pyrazolo[3,4-c]quinolin-4-amine] | 6.00 to 7.00 | 7.00 to 8.00 |
| CS(=O)(=O)c1ccc2nc(Nc3ccc(N4CCOC4=O)cc3)c3[nH]ncc3c2c1 [Example 76, 3-(4-((8-(methylsulfonyl)-3H-pyrazolo[3,4-c]quinolin-4-yl)amino)phenyl)oxazolidin-2-one] | 6.00 to 7.00 | 7.00 to 8.00 |
| CS(=O)(=O)c1ccc2nc(Nc3ccc4c(c3)NC(=O)CCC4)c3[nH]ncc3c2c1 [Example 77, 8-((8-(methylsulfonyl)-3H-pyrazolo[3,4-c]quinolin-4-yl)amino)-4,5-dihydro-1H-benzo[b]azepin-2(3H)-one] | > 8.00 | > 8.00 |
| CS(=O)(=O)c1cccc(Nc2nc3ccc(S(C)(=O)=O)cc3c3cn[nH]c23)c1 [Example 78, 8-(methylsulfonyl)-N-(3-(methylsulfonyl)phenyl)-3H-pyrazolo[3,4-c]quinolin-4-amine] | 6.00 to 7.00 | 7.00 to 8.00 |
| COc1cccc2nc(Nc3ccc(N4CCN(C)CC4)nc3)c3[nH]ncc3c12 [Example 79, 9-methoxy-N-(6-(4-methylpiperazin-1-yl)pyridin-3-yl)-3H-pyrazolo[3,4-c]quinolin-4-amine] | 6.00 to 7.00 | 7.00 to 8.00 |
| CC(C)(C)N1CCN(c2ccc(Nc3nc4ccc(S(C)(=O)=O)cc4c4cn[nH]c34)cc2)CC1 [Example 80, N-(4-(4-(tert-butyl)piperazin-1-yl)phenyl)-8-(methylsulfonyl)-3H-pyrazolo[3,4-c]quinolin-4-amine] | 7.00 to 8.00 | 7.00 to 8.00 |
| CN1CCN(c2ccc(Nc3nc4ccc(S(C)(=O)=O)cc4c4cn[nH]c34)cn2)CC1 [Example 81, N-(6-(4-methylpiperazin-1-yl)pyridin-3-yl)-8-(methylsulfonyl)-3H-pyrazolo[3,4-c]quinolin-4-amine] | 6.00 to 7.00 | 7.00 to 8.00 |
| COc1ccc2nc(Nc3cnn(C)c3)c3n[nH]cc3c2c1 [Example 83, 8-methoxy-N-(1-methyl-1H-pyrazol-4-yl)-2H-pyrazolo[3,4-c]quinolin-4-amine] | 6.00 to 7.00 | 7.00 to 8.00 |
| COc1ccc2nc(Nc3cnn(C4CCOCC4)c3)c3n[nH]cc3c2c1 [Example 85, 8-methoxy-N-(1-(tetrahydro-2H-pyran-4-yl)-1H-pyrazol-4-yl)-2H-pyrazolo[3,4-c]quinolin-4-amine] | 6.00 to 7.00 | 7.00 to 8.00 |
| COc1ccc2nc(Nc3ccc(N4CCC(N5CCOCC5)CC4)cc3)c3n[nH]cc3c2c1 [Example 86, 8-methoxy-N-(4-(4-morpholinopiperidin-1-yl)phenyl)-2H-pyrazolo[3,4-c]quinolin-4-amine] | 6.00 to 7.00 | 6.00 to 7.00 |
| CS(=O)(=O)c1cccc2nc(Nc3ccc4c(c3)NC(=O)CCC4)c3[nH]ncc3c12 [Example 98, 8-((9-(methylsulfonyl)-3H-pyrazolo[3,4-c]quinolin-4-yl)amino)-4,5-dihydro-1H-benzo[b]azepin-2(3H)-one] | 6.00 to 7.00 | 7.00 to 8.00 |
| CS(=O)(=O)c1ccc2c(c1)nc(Nc1ccc(N3CCOCC3)cc1)c1[nH]ncc12 [Example 101, 7-(methylsulfonyl)-N-(4-morpholinophenyl)-3H-pyrazolo[3,4-c]quinolin-4-amine] | 6.00 to 7.00 | 7.00 to 8.00 |
| CS(=O)(=O)c1cccc2nc(Nc3cnn(C4CCOCC4)c3)c3[nH]ncc3c12 [Example 108, 9-(methylsulfonyl)-N-(1-(tetrahydro-2H-pyran-4-yl)-1H-pyrazol-4-yl)-3H-pyrazolo[3,4-c]quinolin-4-amine] | 6.00 to 7.00 | 7.00 to 8.00 |
| COCCn1cc(Nc2nc3ccc(OC)cc3c3c[nH]nc23)cn1 [Example 109, 8-methoxy-N-(1-(2-methoxyethyl)-1H-pyrazol-4-yl)-2H-pyrazolo[3,4-c]quinolin-4-amine] | 6.00 to 7.00 | 7.00 to 8.00 |
| COc1cccc2nc(Nc3cnn(C4CCN(C)CC4)c3)c3[nH]ncc3c12 [Example 118, 9-methoxy-N-(1-(1-methylpiperidin-4-yl)-1H-pyrazol-4-yl)-3H-pyrazolo[3,4-c]quinolin-4-amine] | 7.00 to 8.00 | > 8.00 |
| CS(=O)(=O)c1ccc2c(c1)nc(Nc1ccc3c(c1)NC(=O)CCC3)c1[nH]ncc12 [Example 119, 8-((7-(methylsulfonyl)-3H-pyrazolo[3,4-c]quinolin-4-yl)amino)-4,5-dihydro-1H-benzo[b]azepin-2(3H)-one] | 7.00 to 8.00 | 6.00 to 7.00 |
| CS(=O)(=O)c1ccc2c(c1)nc(Nc1cnn(C3CCOCC3)c1)c1[nH]ncc12 [Example 120, 7-(methylsulfonyl)-N-(1-(tetrahydro-2H-pyran-4-yl)-1H-pyrazol-4-yl)-3H-pyrazolo[3,4-c]quinolin-4-amine] | 7.00 to 8.00 | > 8.00 |
| CS(=O)(=O)c1ccc2nc(Nc3cnn(C4CCOCC4)c3)c3[nH]ncc3c2c1 [Example 143, 8-(methylsulfonyl)-N-(1-(tetrahydro-2H-pyran-4-yl)-1H-pyrazol-4-yl)-3H-pyrazolo[3,4-c]quinolin-4-amine] | 7.00 to 8.00 | > 8.00 |
| CN1CCC(n2cc(Nc3nc4cc(S(C)(=O)=O)ccc4c4cn[nH]c34)cn2)CC1 [Example 167, N-(1-(1-methylpiperidin-4-yl)-1H-pyrazol-4-yl)-7-(methylsulfonyl)-3H-pyrazolo[3,4-c]quinolin-4-amine] | 7.00 to 8.00 | 6.00 to 7.00 |
| CC(=O)N1CCC(n2cc(Nc3nc4cc(S(C)(=O)=O)ccc4c4cn[nH]c34)cn2)CC1 [Example 168, 1-(4-(4-((7-(methylsulfonyl)-3H-pyrazolo[3,4-c]quinolin-4-yl)amino)-1H-pyrazol-1-yl)piperidin-1-yl)ethan-1-one] | 7.00 to 8.00 | 7.00 to 8.00 |
| COCCn1cc(Nc2nc3cc(S(C)(=O)=O)ccc3c3cn[nH]c23)cn1 [Example 170, N-(1-(2-methoxyethyl)-1H-pyrazol-4-yl)-7-(methylsulfonyl)-3H-pyrazolo[3,4-c]quinolin-4-amine] | 6.00 to 7.00 | 6.00 to 7.00 |
| COCCn1cc(Nc2nc3cc(SC)ccc3c3cn[nH]c23)cn1 [Example 171, N-(1-(2-methoxyethyl)-1H-pyrazol-4-yl)-7-(methylthio)-3H-pyrazolo[3,4-c]quinolin-4-amine] | 6.00 to 7.00 | 6.00 to 7.00 |
| CC(C)(C#N)n1cc(Nc2nc3ccc(S(C)(=O)=O)cc3c3cn[nH]c23)cn1 [Example 172, 2-methyl-2-(4-((8-(methylsulfonyl)-3H-pyrazolo[3,4-c]quinolin-4-yl)amino)-1H-pyrazol-1-yl)propanenitrile] | > 8.00 | 7.00 to 8.00 |
| CS(=O)(=O)c1ccc2nc(Nc3cnn(C4COC4)c3)c3[nH]ncc3c2c1 [Example 173, 8-(methylsulfonyl)-N-(1-(oxetan-3-yl)-1H-pyrazol-4-yl)-3H-pyrazolo[3,4-c]quinolin-4-amine] | > 8.00 | 7.00 to 8.00 |
| CS(=O)(=O)c1ccc2nc(Nc3ccc(C(=O)N4CCOCC4)c(F)c3)c3[nH]ncc3c2c1 [Example 175, (2-fluoro-4-((8-(methylsulfonyl)-3H-pyrazolo[3,4-c]quinolin-4-yl)amino)phenyl)(morpholino)methanone] | 6.00 to 7.00 | 7.00 to 8.00 |
| COCCCn1cc(Nc2nc3ccc(S(C)(=O)=O)cc3c3cn[nH]c23)cn1 [Example 178, N-(1-(3-methoxypropyl)-1H-pyrazol-4-yl)-8-(methylsulfonyl)-3H-pyrazolo[3,4-c]quinolin-4-amine] | 7.00 to 8.00 | > 8.00 |
